The values that follow come from article PMC12686049 (2025).

The subject of assay [1] is A2-G (DNA, G4) GGGTGGGGGTGATAAACGGGGCATCAGGGACACATTGCTGGGTCGGGTCGT
Description: CD titration at 295 nm, Hill fit. The settings on record: 100 mM KCl; 10 mM sodium cacodylate, pH 7.0, 25 °C; 10 µM DNA; apparent, half-maximal ellipticity change; Hill coefficient 2.8 ± 1.5.

Assay [2] deals with A1-G (DNA, G4) CCGGGAGGAATCATGTAAGGGGTCCCGGGAACGGGCAAGGGGCTTTTCACC
The experiment in a line: CD titration at 295 nm, Hill fit. The settings on record: 100 mM KCl; 10 mM sodium cacodylate, pH 7.0, 25 °C; 10 µM DNA; apparent, half-maximal ellipticity change; Hill coefficient 2.1 ± 0.9.

For assay [3], the system named is ags1 (DNA, G4) GGGCTTGAGGGGAACTGGGAGGAGCGGG
Description: thioflavin T fluorescence. The settings on record: 100 mM KCl; 10 mM sodium cacodylate, pH 7.4; 4 µM DNA, 1 µM dye; background without DNA 1154.

In assay [4] the test system is atrF (DNA, G4) GGGTATTTGTTTGGGGGGATGGG
The experiment in a line: thioflavin T fluorescence. The following applies: 100 mM KCl; 10 mM sodium cacodylate, pH 7.4; 4 µM DNA, 1 µM dye; background without DNA 1154.

The subject of assay [5] is atrR (DNA, G4) GGGGGAGGGTGCGGGATGCTCTTCGGG
The experiment in a line: thioflavin T fluorescence. The following applies: 100 mM KCl; 10 mM sodium cacodylate, pH 7.4; 4 µM DNA, 1 µM dye; background without DNA 1154.

Assay [6] relates to hmg1 (DNA, G4) GGGCGGCAGGGACAGGGGCAACTTCGGG
Description: thioflavin T fluorescence. The settings on record: 100 mM KCl; 10 mM sodium cacodylate, pH 7.4; 4 µM DNA, 1 µM dye; background without DNA 1154.

The subject of assay [7] is zrfC (DNA, G4) GGGTTGGGCTGGTCGACATGTGGGCCCGGG
The experiment in a line: thioflavin T fluorescence. The settings on record: 100 mM KCl; 10 mM sodium cacodylate, pH 7.4; 4 µM DNA, 1 µM dye; background without DNA 1154.

Assay [8] has as its system dppV (DNA, G4) GGGACGGCGTTGGGGGGGGGAAGGG
The experiment in a line: thioflavin T fluorescence. The following applies: 100 mM KCl; 10 mM sodium cacodylate, pH 7.4; 4 µM DNA, 1 µM dye; background without DNA 1154.

In assay [9] the test system is bck1 (DNA, G4) GGGCCTGGAGGGGGGCCCGGGG
Description: thioflavin T fluorescence. The settings on record: 100 mM KCl; 10 mM sodium cacodylate, pH 7.4; 4 µM DNA, 1 µM dye; background without DNA 1154.

For assay [10], the system named is aspf2 (DNA, G4) GGGGACGGGGGAGGTAGGGAGGG
Description: thioflavin T fluorescence. The following applies: 100 mM KCl; 10 mM sodium cacodylate, pH 7.4; 4 µM DNA, 1 µM dye; background without DNA 1154.

Assay [11] deals with gliN (DNA, G4) GGGGGGCGCTTGGCTGGGAAGGCGGTTGGG
Description: thioflavin T fluorescence. The settings on record: 100 mM KCl; 10 mM sodium cacodylate, pH 7.4; 4 µM DNA, 1 µM dye; background without DNA 1154.

Assay [12] relates to rodA (DNA, G4) GGGGTAGGGAACAGGGTCCCGGG
The experiment in a line: thioflavin T fluorescence. The following applies: 100 mM KCl; 10 mM sodium cacodylate, pH 7.4; 4 µM DNA, 1 µM dye; background without DNA 1154.

Assay [13] concerns Telomere (DNA, G4) TTAGGGTTAGGGTTAGGGTTAGGGTT
Description: thioflavin T fluorescence. The settings on record: 100 mM KCl; 10 mM sodium cacodylate, pH 7.4; 4 µM DNA, 1 µM dye; background without DNA 1154.

The test system of assay [14] is yap1 (DNA, G4) GGGATGGGCTTCCCAAGTCGGGGAGAGGG
Description: thioflavin T fluorescence. The following applies: 100 mM KCl; 10 mM sodium cacodylate, pH 7.4; 4 µM DNA, 1 µM dye; background without DNA 1154.

Assay [15] concerns ftmC (DNA, G4) GGGTCTGGAGCGCGGGGTTCGGGGATCGGG
The experiment in a line: thioflavin T fluorescence. The settings on record: 100 mM KCl; 10 mM sodium cacodylate, pH 7.4; 4 µM DNA, 1 µM dye; background without DNA 1154.

For assay [16], the system named is abcB (DNA, G4) GGGGGTGGGCGTTGGGGCGGG
The experiment in a line: thioflavin T fluorescence. The following applies: 100 mM KCl; 10 mM sodium cacodylate, pH 7.4; 4 µM DNA, 1 µM dye; background without DNA 1154.

In assay [17] the test system is ftmE (DNA, G4) GGGAGTGGGGATGGCGACGGGGAGCAGGG
Description: thioflavin T fluorescence. The following applies: 100 mM KCl; 10 mM sodium cacodylate, pH 7.4; 4 µM DNA, 1 µM dye; background without DNA 1154.

The subject of assay [18] is pes1 (DNA, G4) GGGAGCAAGGGGAAATCGCTGAGGGTGGG
The experiment in a line: thioflavin T fluorescence. The settings on record: 100 mM KCl; 10 mM sodium cacodylate, pH 7.4; 4 µM DNA, 1 µM dye; background without DNA 1154.

Assay [19] relates to cyp51B (DNA, G4) GGGGTAGGGGGGCCCAGGG
Description: thioflavin T fluorescence. The settings on record: 100 mM KCl; 10 mM sodium cacodylate, pH 7.4; 4 µM DNA, 1 µM dye; background without DNA 1154.

The test system of assay [20] is skn7 (DNA, single strand) GGGGGGGGGGTGGG
Description: thioflavin T fluorescence. The following applies: 100 mM KCl; 10 mM sodium cacodylate, pH 7.4; 4 µM DNA, 1 µM dye; background without DNA 1154.

Assay [21] deals with chsG (DNA, G4) GGAGAGCGGGAGGTGGTGAGGG
Description: thioflavin T fluorescence. The following applies: 100 mM KCl; 10 mM sodium cacodylate, pH 7.4; 4 µM DNA, 1 µM dye; background without DNA 1154.

The test system of assay [22] is zafA (DNA, G4) GGGCAGGGCAGAGCAGGGCAGGGG
Description: thioflavin T fluorescence. The settings on record: 100 mM KCl; 10 mM sodium cacodylate, pH 7.4; 4 µM DNA, 1 µM dye; background without DNA 1154.

In assay [23] the test system is hscA (DNA, G4) GGGGCTGAATTGGGGGGGAAAACGAGACGGG
The experiment in a line: thioflavin T fluorescence. The following applies: 100 mM KCl; 10 mM sodium cacodylate, pH 7.4; 4 µM DNA, 1 µM dye; background without DNA 1154.

The test system of assay [24] is gstA (DNA, G4) GGGCTGGGTGGCGGCCGCTGGTTGGGCGGG
The experiment in a line: thioflavin T fluorescence. The following applies: 100 mM KCl; 10 mM sodium cacodylate, pH 7.4; 4 µM DNA, 1 µM dye; background without DNA 1154.

The test system of assay [25] is erg1 (DNA, G4) GGGCGACGGGGAAGAGGTAGGGAGGG
Description: thioflavin T fluorescence. The following applies: 100 mM KCl; 10 mM sodium cacodylate, pH 7.4; 4 µM DNA, 1 µM dye; background without DNA 1154.

Assay [26] concerns lysF (DNA, G4) GGGACGCGGGGGGCGGCATCGGGAGCGGG
Description: thioflavin T fluorescence. The settings on record: 100 mM KCl; 10 mM sodium cacodylate, pH 7.4; 4 µM DNA, 1 µM dye; background without DNA 1154.

Assay [27] deals with mp1 (DNA, single strand) GGCTCCGGCTCCGGCTCCGG
The experiment in a line: thioflavin T fluorescence. The following applies: 100 mM KCl; 10 mM sodium cacodylate, pH 7.4; 4 µM DNA, 1 µM dye; background without DNA 1154.

Assay [28] deals with cyp51A (DNA, G4) GGGTGGGGGTGATAAACGGGGCATCAGGG
The experiment in a line: thioflavin T fluorescence. The following applies: 100 mM KCl; 10 mM sodium cacodylate, pH 7.4; 4 µM DNA, 1 µM dye; background without DNA 1154.

The subject of assay [29] is pkaC1 (DNA, G4) GGGTTGTGGTGGGTGGAGGGATGGGG
Description: thioflavin T fluorescence. The settings on record: 100 mM KCl; 10 mM sodium cacodylate, pH 7.4; 4 µM DNA, 1 µM dye; background without DNA 1154.

Assay [30] concerns arp2 (DNA, G4) GGGGAGGGGACCCTTGCATGGAGGGGGGG
Description: thioflavin T fluorescence. The settings on record: 100 mM KCl; 10 mM sodium cacodylate, pH 7.4; 4 µM DNA, 1 µM dye; background without DNA 1154.

The subject of assay [31] is ste7 (DNA, G4) GGGAGGGACACAAAGAGGGGATAAGGAGGG
Description: thioflavin T fluorescence. The following applies: 100 mM KCl; 10 mM sodium cacodylate, pH 7.4; 4 µM DNA, 1 µM dye; background without DNA 1154.

The test system of assay [32] is B DNA (DNA, single strand) GGCGCTATTCTCTGGTGCTGCT
Description: thioflavin T fluorescence. The following applies: 100 mM KCl; 10 mM sodium cacodylate, pH 7.4; 4 µM DNA, 1 µM dye; background without DNA 1154.

Assay [33] deals with laeA (DNA, G4) GGGATGTGGGACAGGGATTTGGG
The experiment in a line: thioflavin T fluorescence. The settings on record: 100 mM KCl; 10 mM sodium cacodylate, pH 7.4; 4 µM DNA, 1 µM dye; background without DNA 1154.

For assay [34], the system named is erg5 (DNA, G4) GGGATTAGGGTATGCCTCAGGGTCATGGG
Description: thioflavin T fluorescence. The following applies: 100 mM KCl; 10 mM sodium cacodylate, pH 7.4; 4 µM DNA, 1 µM dye; background without DNA 1154.

Assay [35] relates to aspf28 (DNA, G4) GGGTTGCGAGGGAAGGAGGGGCGGG
The experiment in a line: thioflavin T fluorescence. The following applies: 100 mM KCl; 10 mM sodium cacodylate, pH 7.4; 4 µM DNA, 1 µM dye; background without DNA 1154.

The subject of assay [36] is fks1 (DNA, G4) GGAAGGGGCTCGGGCATGGG
The experiment in a line: thioflavin T fluorescence. The settings on record: 100 mM KCl; 10 mM sodium cacodylate, pH 7.4; 4 µM DNA, 1 µM dye; background without DNA 1154.

The structures appear in SMILES notation.

With `C[n+]1cc(NC(=O)c2ccc3ccc4ccc(C(=O)Nc5cc6ccccc6[n+](C)c5)nc4c3n2)cc2ccccc21`, the K came out at 32.5 ± 1.8 µM in assay [1] and 32.7 ± 3.3 µM in assay [2].

`Cc1ccc2c(c1)sc(-c1ccc(N(C)C)cc1)[n+]2C`: the Fluorescence in [3] is on record as 67,230 ± 34 a.u; in assay [4], 64,599 ± 9 a.u; in [5] it was 37,691 ± 7 a.u; in assay [6] it was 148,303 ± 33 a.u; in assay [7], 81,452 ± 19 a.u; in [8], 47,933 ± 12 a.u. In addition, the Fluorescence in [9] is 73,174 ± 7 a.u; in [10], 87,449 ± 40 a.u; in assay [11], 134,267 ± 16 a.u; in assay [12], 50,100 ± 17 a.u; in [13], 100,859 ± 19 a.u; in [14], 69,030 ± 18 a.u. Besides, the Fluorescence in assay [15] is given as 66,613 ± 9 a.u; in [16] it was 28,763 ± 5 a.u; in assay [17], 105,384 ± 10 a.u; in assay [18] it was 129,161 ± 40 a.u; in assay [19], 34,409 ± 10 a.u; in assay [20] it was 7173 ± 6 a.u. Further, the Fluorescence in assay [21] is 38,112 ± 15 a.u; in [22] it was 26,023 ± 6 a.u; in assay [23], 56,161 ± 21 a.u; in [24] it was 56,709 ± 4 a.u; in assay [25], 71,126 ± 17 a.u; in [26] it was 86,442 ± 9 a.u. Further, the Fluorescence was 9852 ± 22 a.u in assay [27]; 62,145 ± 13 a.u in assay [28]; 62,347 ± 4 a.u in [29]; 82,140 ± 54 a.u in [30]; 126,709 ± 54 a.u in assay [31]; 8808 ± 6 a.u in assay [32]. The Fluorescence in assay [33] is 50,899 ± 9 a.u; in assay [34] it was 149,474 ± 14 a.u; in [35], 71,548 ± 13 a.u; in [36], 72,302 ± 9 a.u.
